{"source": "patent EP0966282B1", "about": "“USE OF THE ANGIOTENSIN II ANTAGONISTS LOSARTAN AND EXP-3174 TO TREAT SYMPTOMATIC HEART FAILURE” (priority 1997, dated 1998)", "key": {"[1]": {"tested_on": "older patients with symptomatic heart failure", "details": "for hospitalized overall for any reason: 48-week study observation period, p=0.018", "source_text": "The study was approved by institutional review boards at each site; all patients gave written informed consent. An independent Data and Safety Monitoring Committee monitored the progress of the study. See Pitt B, Chang P, Timmermans P. Angiotensin II receptor antagonists in heart failure: Rationale and design of the Evaluation of Losartan in the Elderly (ELITE) Trial. Cardiovascular Drugs and Therapy 1995; 9: 693-700.\nA detailed description of enrollment and exclusion criteria and study design has been presented previously. See Pitt B, Chang P, Timmermans P. Angiotensin II receptor antagonists in heart failure: Rationale and design of the Evaluation of Losartan in the Elderly (ELITE) Trial. Cardiovascular Drugs and Therapy 1995; 9: 693-700.\nTitration generally occurred at 7-day intervals as tolerated. Treatment with all other concomitant cardiovascular therapies was permitted with the exception of open-label ACE inhibitors. Randomized patients were stratified by age (less than 70 and 70 years or greater).\nClinical assessments were performed weekly during titration and at three-month intervals thereafter. Laboratory evaluations were performed at weeks three, six, and twelve, and at three month intervals thereafter.\nSee Example 2) Hypotension-related symptoms, clinically important serum potassium increases (≥ 0.5 mEq/L), and cough, all originally secondary endpoints, were moved to tertiary endpoints. All deaths (including cause of death) and hospitalizations were adjudicated by an independent Clinical Endpoint Adjudication Committee, blinded to study treatment (see panel for mortality classification). Other prospectively-defined measures included myocardial infarction/hospitalization for unstable angina, worsening of heart failure, New York Heart Association functional classification, discontinuation from the study due to study drug intolerance, changes in neurohormonal profile.\n• Sudden Cardiac Death: Death occurring without warning or within 1 hour of symptoms • Death due to Progressive Heart Failure: Death preceded by worsening signs and/or symptoms of heart failure, including cardiogenic shock • Fatal Myocardial Infarction: Death associated with autopsy-verified myocardial infarction or death within 28 days of a hospital-verified acute myocardial infarction provided no other cardiac or non-cardiac cause of death is found • Death due to Other Cardiac Causes: Death due to other cardiac causes, such as arrhythmia • Death due to Other Vascular Causes: Death due to vascular events such as stroke, pulmonary embolus, ruptured aneurysm, etc. • Death due to non-cardiovascular causes: Death not due to any cardiac or vascular events\nThe power and sample-size estimates for this study have been described. See Pitt B, Chang P, Timmermans P. Angiotensin II receptor antagonists in heart failure: Rationale and design of the Evaluation of Losartan in the Elderly (ELITE) Trial. Cardiovascular Drugs and Therapy 1995; 9: 693-700. Analysis of renal dysfunction (increases in serum creatinine) was based upon a modified intent-to-treat population; i.e., all patients were analyzed according to their randomization group, and an endpoint was declared only if initial and confirmatory elevations occurred while on double-blind therapy. Patients who discontinued from the study without meeting this endpoint were censored in the time-to-event analysis at the time of study discontinuation.\nAnalyses of deaths and heart failure hospitalizations (adjudicated endpoints) were based on an intent-to-treat population; all patients discontinued prematurely were followed through the specified 48-week period of the study. Patients not meeting the endpoint were censored in the time-to-event analysis either at the time of study completion (for patients who completed) or at the end of the 48-week follow-up period (for patients who discontinued).\nFor all time-to-event data, survival analyses were based upon the log-rank test."}, "[2]": {"tested_on": "patients with symptomatic heart failure", "assay": "Meta-analysis of clinical events, Protocols A & B (Peto-modified Mantel-Haenszel method)", "type": "in vivo", "details": "for CHF Hospitalization, Odds Ratio / Death, Odds Ratio: Meta-analysis Protocols A & B, odds in placebo group relative to losartan group", "description": "This report summarizes the results of the Meta-analysis performed (as proposed in the Data Analysis Plan) on the observed mortality and congestive heart failure (CHF) hospitalization across these two studies. The mortality and CHF hospitalization were not predefined endpoints in the protocols but it was intended that they be analyzed as a part of safety. Thus results from these analyses should not be interpreted as a test of significance as there were no predefined hypotheses corresponding to these safety parameters. […] Odds ratio's with 95% confidence intervals have been provided for these variables. Peto-modified Mantel-Haenszel (Fleiss, J.L., Statistical Methods for Rates and Proportions, Wiley, NY, 1981.) method was used to carry out the Meta-analysis of death and CHF hospitalization rates in the two 12 week exercise studies. This method assumes homogeneity across the studies and provides a test for heterogeneity. […] Since the results from protocols A and B are consistent, a safety Meta-analysis as proposed in the Data Analysis Plan has been performed. Homogeneity between the two studies with respect to odds ratio's for death and CHF hospitalization was found."}, "[3]": {"details": "losartan compared to captopril, controlled for age category"}, "[4]": {"details": "losartan compared to captopril, negative = increase in risk"}}, "note": "Like-named read-outs stand apart in the source and are kept apart here. Marks after values point to notes of the source that are not given here.", "data": [{"molecule": "CCCCc1nc(Cl)c(CO)n1Cc1ccc(-c2ccccc2-c2nn[nH]n2)cc1", "note": "[Losartan]", "values": [{"measurement": "hospitalized overall for any reason", "setting": "[1]; number of patients", "result": 86, "unit": "patients"}, {"measurement": "hospitalized overall for any reason", "setting": "[1]", "result": 24.4, "unit": "%"}, {"measurement": "incidence of heart failure hospitalizations", "setting": "[1]; 48 weeks", "result": 5.7, "unit": "%"}, {"measurement": "Single rises of serum creatinine ≥0.3 mg/dL, risk reduction", "setting": "[1]; human, in vivo", "result": 14, "unit": "%"}, {"measurement": "incidence of death due to progressive heart failure", "setting": "[1]; human, in vivo", "result": "less than one"}, {"measurement": "patients discontinued for renal function reason", "setting": "[1]; human, in vivo", "result": "less than 2%"}, {"measurement": "persistent increases in serum creatinine ≥0.3 mg/dL from baseline", "setting": "[1]; human, in vivo", "result": 10.5, "unit": "%"}, {"measurement": "tolerability", "setting": "[1]; human, in vivo", "result": "better tolerated compared to captopril"}, {"measurement": "Cause of death: Cardiovascular, Fatal Myocardial Infarction", "setting": "[1]; intent-to-treat, 48 weeks", "result": "1 (0.3) number (percent) of patients"}, {"measurement": "Cause of death: Cardiovascular, Other Vascular", "setting": "[1]; intent-to-treat, 48 weeks", "result": "5 (1.4) number (percent) of patients"}, {"measurement": "Cause of death: Cardiovascular, Progressive Heart Failure", "setting": "[1]; intent-to-treat, 48 weeks", "result": "1 (0.3) number (percent) of patients"}, {"measurement": "Cause of death: Cardiovascular, Sudden Death", "setting": "[1]; intent-to-treat, 48 weeks", "result": "5 (1.4) number (percent) of patients"}, {"measurement": "Cause of death: Non-cardiovascular", "setting": "[1]; intent-to-treat, 48 weeks", "result": "5 (1.4) number (percent) of patients"}, {"measurement": "Death and/or Hospitalization for Heart Failure", "setting": "[1]; intent-to-treat, 48 weeks", "result": "33 (9.4) number (percent) of patients"}, {"measurement": "Hospitalization for Heart Failure", "setting": "[1]; intent-to-treat, 48 weeks", "result": "20 (5.7) number (percent) of patients"}, {"measurement": "total mortality", "setting": "[1]; intent-to-treat, 48 weeks", "result": "17 (4.8) number (percent) of patients"}, {"measurement": "Death and/or Hospitalization for Heart Failure, RISK REDUCTION (95% CI)", "setting": "[1]; [3]", "result": "0.32 (- 0.04, 0.55)"}, {"measurement": "Fatal Myocardial Infarction, RISK REDUCTION (95% CI)", "setting": "[1]; [3]", "result": "0.76 (- 0.83, 0.97)"}, {"measurement": "Hospitalization for Heart Failure, RISK REDUCTION (95% CI)", "setting": "[1]; [3]", "result": "0.04 (- 0.74, 0.47)"}, {"measurement": "Non-cardiovascular death, RISK REDUCTION (95% CI)", "setting": "[1]; [3]", "result": "0.35 (- 0.94, 0.78)"}, {"measurement": "Sudden Death, RISK REDUCTION (95% CI)", "setting": "[1]; [3]", "result": "0.64 ( 0.03, 0.86)"}, {"measurement": "Total Mortality, RISK REDUCTION (95% CI)", "setting": "[1]; [3]", "result": "0.46 ( 0.05, 0.69)"}, {"measurement": "Death from Other Vascular causes, RISK REDUCTION (95% CI)", "setting": "[1]; [4]", "result": "-0.03 (- 2.63, 0.71)"}, {"measurement": "Death from Progressive Heart Failure, RISK REDUCTION (95% CI)", "setting": "[1]; [4]", "result": "-0.11 (-20.23, 0.94)"}, {"measurement": "decrease in total mortality (lower risk of death)", "setting": "[1]; losartan versus captopril, 48 weeks, P=0.035", "result": 46, "unit": "%"}, {"measurement": "Fatal myocardial infarction", "setting": "[1]; number of patients", "result": "one"}, {"measurement": "died of progressive heart failure", "setting": "[1]; number of patients in each treatment group", "result": "one"}, {"measurement": "total mortality", "setting": "[1]; number of patients, p=0.035", "result": 17, "unit": "patients"}, {"measurement": "sudden cardiac death", "setting": "[1]; number of patients, p=0.043", "result": "five"}, {"measurement": "death and/or heart failure hospitalizations", "setting": "[1]; of 352 losartan-treated, of 370 captopril-treated patients", "result": 33, "unit": "patients"}, {"measurement": "death and/or heart failure hospitalizations", "setting": "[1]; percent of patients, p=0.075", "result": 9.4, "unit": "%"}, {"measurement": "female patients died", "setting": "[1]; subpopulation of female patients: of 118 losartan-treated, of 122 captopril-treated", "result": 9, "unit": "patients"}, {"measurement": "patients classified as New York Heart Association Class I or II at the end of the study", "setting": "[1]; week 48, versus 66 percent (losartan) and 64 percent (captopril) at baseline", "result": 80, "unit": "%"}, {"measurement": "CHF Hospitalization, Odds Ratio", "setting": "[2]", "result": "2.4*"}, {"measurement": "Death, Odds Ratio", "setting": "[2]", "result": "3.5*"}, {"measurement": "CHF Hospitalization, Odds Ratio", "setting": "[2]; listed as losartan", "result": 2.4}, {"measurement": "Death, Odds Ratio", "setting": "[2]; listed as losartan", "result": 3.5}, {"measurement": "CHF Hospitalization (during double-blind)", "setting": "[2]; Protocols A & B combined", "result": 3.1, "unit": "% ^a"}, {"measurement": "Death", "setting": "[2]; Protocols A & B combined, during double-blind therapy or related to Serious AE", "result": 1.4, "unit": "%"}]}]}
